{"source": "paper PMC8231113", "about": "“Protein Secondary Structure Affects Glycan Clustering in Native Mass Spectrometry” (Life, 2021)", "molecular_target": "GII.4 Saga P dimer (Norovirus GII.4 (human norovirus), UniProt B5BTR7)", "experiment": "Native MS, specific glycan binding to P dimer after reference protein correction", "design": "species or system human norovirus (hNoV)", "method": "Prior to MS analysis, purified P dimers were buffer exchanged to 150 mM ammonium acetate (Sigma-Aldrich, reagent grade ≥98%) at pH 7 via centrifugal filter units at 12,000× g at 4 °C (Vivaspin 500, MWCO 10000, Sartorius). Glycans for native MS analysis were mixed with 1 µM (per monomer) purified GII.4 Saga P dimer and 3 µM of the reference proteins at indicated concentrations. Native mass spectra were measured at room temperature in positive ion mode on a high mass modified LCT Premier mass spectrometer (Waters/Micromass, UK and MS Vision, the Netherlands) with a nano-ESI source. In house-made gold-coated electrospray capillaries were used for direct-sample infusion without any accessory chromatographic separation. The voltages and pressures were optimized for non-covalent protein complexes. The gas pressure used in the source hexapole was set between 6.5 and 6.8 × 10^−2 mbar argon optimized for minimal complex dissociation and the backing pressure of the source roughing pump was set between 7.0 and 8.5 mbar. Spectra were recorded with applied voltages for the capillary and cone of 1.20 kV and 240 V, respectively. Note that charge state distributions for P dimers were sometimes slightly shifted as was the degree of glycan clustering per charge state. These changes were highly variable and not quantifiable.\nFor calibration of the raw data, a 25 mg/mL cesium iodide spectrum from the same day was used. MassLynx V4.1 (Waters, Manchester, UK) was used to assign peak series to protein species and to determine the mass after minimal smoothing. Furthermore, OriginPro 2016 SR2 (OriginLab, Northampton, MA, USA) was used for spectral deconvolution and curve fitting. Correction for nonspecific protein-ligand clustering was performed as described. Corrected peak areas were averaged and normalized to the free-protein signal. Data were based on at least three independent measurements. Python code Panda and Numpy package were used to calculate the specific binding of P dimers according to the glycan clustering ratio obtained from the selected reference protein candidates. Seaborn and matplotlib.pyplot package were imported into a python script to plot the results. The module of sklearn.linear model was applied for linear regression. The matplotlib and heatmap package were used to plot the heatmap.\nData from native ESI MS measurements were translated into dissociation constants (KD values). The detailed calculations were based on the equations listed below. A protein (P) and a glycan ligand (L) form a complex through non-covalent interactions leading to a reversible association described by (Equation (1)):(1) P+L⇌PL when equilibrium is reached, the KD can be calculated directly from the concentrations via the law of mass action (Equation (2)):(2) KD=[Pfree][Lfree]/[PL]\nTheoretically, the KD is calculated by measuring the concentration of the three components (Pfree, Lfree, PL) in solution. Usually, these values are only indirectly accessible because they require ligand titration up to binding saturation. However, native MS allows for the directly measurement of Pfree and PL, from which Lfree can be calculated using the input concentrations. In the present work, the non-covalent interaction was measured in the gas phase assuming identical ESI and detection efficiency for free and glycan-associated proteins, both for the analyte and the reference protein. […] For P dimers, the equations reflect glycan binding to the individual monomers assuming that binding sites on each monomer are equal and independent.\nUsing R described in Equation (3), the KD calculation can be re-written into Equation (4) with the known initial concentration of glycan ligand [L0] and protein [P0], adapted from Sun et al.:(3) R=PLequil∕Pequil=∑nA(PL^n+)∕n∕∑nA(P^n+)∕n (4) KD =L0−RP0/1+R/R […]"}
{"compound": "CC(=O)N[C@H]1[C@@H](O[C@H]2[C@@H](O)[C@@H](CO)O[C@@H](O[C@H]3[C@H](O)[C@@H](CO)OC(O)[C@@H]3NC(C)=O)[C@@H]2O[C@@H]2O[C@@H](C)[C@@H](O)[C@@H](O)[C@@H]2O)O[C@H](CO)[C@H](O)[C@@H]1O", "note": "(stereo partly shown) [HBGA A, GalNAcα1-3(Fucα-2)Galβ1-3GlcNAc]", "values": [{"measurement": "Bound number of carbohydrates on Saga P dimer", "setting": "ref. protein ADH, glycan 100 µM", "value": 0}, {"measurement": "Bound number of carbohydrates on Saga P dimer", "setting": "ref. protein ADH, glycan 200 µM", "value": 0}, {"measurement": "Bound number of carbohydrates on Saga P dimer", "setting": "ref. protein ADH, glycan 300 µM", "value": 0}, {"measurement": "Bound number of carbohydrates on Saga P dimer", "setting": "ref. protein ADH, glycan 400 µM", "value": 0}, {"measurement": "Bound number of carbohydrates on Saga P dimer", "setting": "ref. protein ADH, glycan 500 µM", "value": 0}, {"measurement": "Bound number of carbohydrates on Saga P dimer", "setting": "ref. protein CA, glycan 100 µM", "value": 1}, {"measurement": "Bound number of carbohydrates on Saga P dimer", "setting": "ref. protein CA, glycan 200 µM", "value": 1}, {"measurement": "Bound number of carbohydrates on Saga P dimer", "setting": "ref. protein CA, glycan 300 µM", "value": 1}, {"measurement": "Bound number of carbohydrates on Saga P dimer", "setting": "ref. protein CA, glycan 400 µM", "value": 1}, {"measurement": "Bound number of carbohydrates on Saga P dimer", "setting": "ref. protein CA, glycan 500 µM", "value": 1}, {"measurement": "Bound number of carbohydrates on Saga P dimer", "setting": "ref. protein Cyto c, glycan 100 µM", "value": 2}, {"measurement": "Bound number of carbohydrates on Saga P dimer", "setting": "ref. protein Cyto c, glycan 200 µM", "value": 3}, {"measurement": "Bound number of carbohydrates on Saga P dimer", "setting": "ref. protein Cyto c, glycan 300 µM", "value": 3}, {"measurement": "Bound number of carbohydrates on Saga P dimer", "setting": "ref. protein Cyto c, glycan 400 µM", "value": 4}, {"measurement": "Bound number of carbohydrates on Saga P dimer", "setting": "ref. protein Cyto c, glycan 500 µM", "value": 4}, {"measurement": "Bound number of carbohydrates on Saga P dimer", "setting": "ref. protein GFP, glycan 100 µM", "value": 1}, {"measurement": "Bound number of carbohydrates on Saga P dimer", "setting": "ref. protein GFP, glycan 200 µM", "value": 1}, {"measurement": "Bound number of carbohydrates on Saga P dimer", "setting": "ref. protein GFP, glycan 300 µM", "value": 1}, {"measurement": "Bound number of carbohydrates on Saga P dimer", "setting": "ref. protein GFP, glycan 400 µM", "value": 1}, {"measurement": "Bound number of carbohydrates on Saga P dimer", "setting": "ref. protein GFP, glycan 500 µM", "value": 1}, {"measurement": "Bound number of carbohydrates on Saga P dimer", "setting": "ref. protein LDH, glycan 100 µM", "value": 0}, {"measurement": "Bound number of carbohydrates on Saga P dimer", "setting": "ref. protein LDH, glycan 200 µM", "value": 0}, {"measurement": "Bound number of carbohydrates on Saga P dimer", "setting": "ref. protein LDH, glycan 300 µM", "value": 0}, {"measurement": "Bound number of carbohydrates on Saga P dimer", "setting": "ref. protein LDH, glycan 400 µM", "value": 0}, {"measurement": "Bound number of carbohydrates on Saga P dimer", "setting": "ref. protein LDH, glycan 500 µM", "value": 1}, {"measurement": "Bound number of carbohydrates on Saga P dimer", "setting": "ref. protein Myo, glycan 100 µM", "value": 2}, {"measurement": "Bound number of carbohydrates on Saga P dimer", "setting": "ref. protein Myo, glycan 200 µM", "value": 3}, {"measurement": "Bound number of carbohydrates on Saga P dimer", "setting": "ref. protein Myo, glycan 300 µM", "value": 3}, {"measurement": "Bound number of carbohydrates on Saga P dimer", "setting": "ref. protein Myo, glycan 400 µM", "value": 3}, {"measurement": "Bound number of carbohydrates on Saga P dimer", "setting": "ref. protein Myo, glycan 500 µM", "value": 4}, {"measurement": "Bound number of carbohydrates on Saga P dimer", "setting": "ref. protein Ubq, glycan 100 µM", "value": 2}, {"measurement": "Bound number of carbohydrates on Saga P dimer", "setting": "ref. protein Ubq, glycan 200 µM", "value": 3}, {"measurement": "Bound number of carbohydrates on Saga P dimer", "setting": "ref. protein Ubq, glycan 300 µM", "value": 4}, {"measurement": "Bound number of carbohydrates on Saga P dimer", "setting": "ref. protein Ubq, glycan 400 µM", "value": 4}, {"measurement": "Bound number of carbohydrates on Saga P dimer", "setting": "ref. protein Ubq, glycan 500 µM", "value": 4}, {"measurement": "Bound number of carbohydrates on Saga P dimer", "setting": "ref. protein apo-TFF, glycan 100 µM", "value": 0}, {"measurement": "Bound number of carbohydrates on Saga P dimer", "setting": "ref. protein apo-TFF, glycan 200 µM", "value": 0}, {"measurement": "Bound number of carbohydrates on Saga P dimer", "setting": "ref. protein apo-TFF, glycan 300 µM", "value": 1}, {"measurement": "Bound number of carbohydrates on Saga P dimer", "setting": "ref. protein apo-TFF, glycan 400 µM", "value": 1}, {"measurement": "Bound number of carbohydrates on Saga P dimer", "setting": "ref. protein apo-TFF, glycan 500 µM", "value": 1}]}
